Read-outs that look alike come from different tables or passages of the source.
How the values were obtained:
Format in all cases: cell-based
[1] = tested on: Serratia marcescens; test: Log kill test of disinfectant formulae (6 hours)
From the text: (§1) Disinfectant and preservative tests are most often performed by challenging the preparation with a concentrated inoculum (e.g., 10^5-10^6 colony forming units (cfu)/ml) of each test organism. Over time samples are taken and plated on a growth medium to estimate the number of live organisms remaining at each time point.
The method for evaluating the effectiveness of a disinfectant for contact lenses generally requires measuring the ability of the agent to reduce the numbers of viable infective organisms during a period of time consistent with the normal period of storage of contact lenses between wearing times. This reduction of numbers of organisms is typically reported in terms of the change in the common logarithm (base 10 logarithm) of the microbial population as a result of exposure to the antimicrobial or disinfecting agent. For example, if the agent has effected a reduction in the concentration of a particular organisms in a challenge solution from 10^6 colony forming units (cfu) per milliliter (ml) to 10^2 cfu/ml within six hours of exposure then the change, or “log reduction”, of the organism as a result of exposure to the agent would be 4.0 (logs). In other words, the number of viable organisms have been reduced to one ten-thousandth of the original level. […]

[2] = tested on: Candida albicans; test: Log kill test of preservative/disinfectant formulae (challenge inoculum, plating over time)
From the text: as §1
(§2) The method for evaluating the effectiveness of a disinfectant for contact lenses generally requires measuring the ability of the agent to reduce the numbers of viable infective organisms during a period of time consistent with the normal period of storage of contact lenses between wearing times. This reduction of numbers of organisms is typically reported in terms of the change in the common logarithm (base 10 logarithm) of the microbial population as a result of exposure to the antimicrobial or disinfecting agent. For example, if the agent has effected a reduction in the concentration of a particular organisms in a challenge solution from 10^6 colony forming units (cfu) per milliliter (ml) to 10^2 cfu/ml within six hours of exposure then the change, or “log reduction”, of the organism as a result of exposure to the agent would be 4.0 (logs). In other words, the number of viable organisms have been reduced to one ten-thousandth of the original level.
(§3) In procedures for verifying the effectiveness of ophthalmic antimicrobial agents generally recognized guidelines call for the use of Candida albicans (a yeast), Fusarium solani or Aspergillus niger (both molds), Pseudomonas aeruginosa (a Gram-negative bacterium), Staphylococcus aureus (a Gram-positive bacterium), Serratia marcescens (a Gram-negative bacterium) and Escherichia coli (a bacterium common in the human gastrointestinal tract).
(§4) Various compounds/extracts were tested in the presence of either a phosphate or a borate-buffered solution. The test organisms included (S. aureus.=Staphylococcus aureus; Ps. aeruginosa=Pseudomonas aeruginosa; E. coli=Escherichia coli; C. albicans.=Candida albicans; and A. niger=Aspergillus niger) and inspected at various time intervals to determine the “log kill” of the various formulations.

[3] = tested on: Aspergillus niger; test: as above
From the text: as §1, §2, §3, §4

[4] = tested on: L929 cell; test: Cytotoxicity assay: high water-content soft contact lenses cycled five days in test solution, then L929 cell cytotoxicity model
Procedure: The present inventors reported earlier on the anti-cytotoxic properties of certain natural products. Experiments were under taken to confirm the anti-cytotoxic effects of Allantoin in particular. […] Besides the usual microbial tests, the material was also used in a cytotoxicity assay, which consisted of cycling high water-content soft contact lenses for five days in each test solution. Then the solution saturated lenses were tested in a L929 cell cytotoxicity model. Cytotoxicity was rated from 0 to 5 with 2 or greater indicating cytotoxicity.

[5] = tested on: Staphylococcus aureus; test: Log kill test of preservative/disinfectant formulae (challenge inoculum, plating over time)
From the text: as §1, §2, §3, §4

[6] = tested on: S. aureus, Ps. aeruginosa, E. coli, C. albicans, A. niger; test: Preservative/disinfectant effectiveness against the panel of test organisms (USP Category 1A Preservative Effectiveness Test); conditions: for Effective Concentration (ppm) meeting the USP Category 1A Preservative Effectiveness Test requirements: summary of formulae that meet the requirements
From the text: as §1, §3, §4
A recognized standard for evaluating the effectiveness of a preservation agent in contain in the USP. For the reader's convenience the formulae, which meet the USP Category 1A Preservative Effectiveness Test requirements, are summarized in Table 10.

[7] = Cytotoxicity test, USP 24 <87> Biological Reactivity Tests, In Vitro, USP Elution
Procedure: Cytotoxicity studies were also performed to determine the potential of these natural compounds, extracts and derivatives for irritation and discomfort when used as disinfecting or preservative agents. The cytotoxicity test analysis was performed in accordance with USP 24 <87> Biological Reactivity Tests, In Vitro, and USP Elution. Two ml of each sample were diluted with 10 ml of 1× MEM. The biological reactivity were described and rated as 0 (no reactivity), 1 (slight reactivity), 2 (mild reactivity), 3 (moderate reactivity), 4 (severe reactivity).

## NC(=O)NC1NC(=O)NC1=O (centres unmarked) [Allantoin]
[1]
  Effectiveness against Serratia marcescens, in words: effective to augment the killing
[2]
  Effectiveness against Candida albicans, in words: quite effective
[3]
  Effectiveness against Aspergillus niger, in words: quite effective
[4]; lenses cycled five days in test solution
  Cytotoxicity in L929 cell model, in words: mitigate the cytotoxic characteristics of PHMB

## COc1ccc2cc3[n+](cc2c1OC)CCc1cc2c(cc1-3)OCO2 [Berberine]
[2]
  Effectiveness against Candida albicans, in words: remarkably effective
[5]
  Effectiveness against Staphylococcus aureus, in words: remarkably effective
[3]
  Effectiveness against Aspergillus niger, in words: remarkably effective

## O=C(/C=C/c1ccc(O)c(O)c1)O[C@@H]1C[C@](O)(C(=O)O)C[C@@H](O)[C@H]1O [Chlorogenic Acid]
[6]
  Overall disinfectant/preservative effectiveness against the test organisms, in words: quite effective
  Effective Concentration (ppm) meeting the USP Category 1A Preservative Effectiveness Test requirements: 1000 ppm

## COc1cc(/C=C/C(=O)O)ccc1O [Ferulic Acid]
[6]
  Overall disinfectant/preservative effectiveness against the test organisms, in words: quite effective
  Effective Concentration (ppm) meeting the USP Category 1A Preservative Effectiveness Test requirements: 1000 ppm
[2]
  Effectiveness against Candida albicans, in words: better activity

## OCCc1ccc(O)c(O)c1 [Hydroxytyrosol, 3,4-dihydroxy-phenylethanol]
[6]
  Effective Concentration (ppm) meeting the USP Category 1A Preservative Effectiveness Test requirements: 200 ppm
[7]; 33.3 ppm
  Grade (biological reactivity): 0

## C/C=C1/[C@H](O[C@@H]2O[C@H](CO)[C@@H](O)[C@H](O)[C@H]2O)OC=C(C(=O)OC)[C@H]1CC(=O)OCCc1ccc(O)c(O)c1 [Oleuropein]
[7]; 8.3 ppm
  Grade (biological reactivity): 0
[7]; 33.3 ppm
  Grade (biological reactivity): 0
[7]; 166.7 ppm
  Grade (biological reactivity): 0

## O.O.O=c1c(O)c(-c2ccc(O)c(O)c2)oc2cc(O)cc(O)c12 [Quercetin Dihydrate]
[6]; statement of the text, listed as Quercetin dihydrate, Dihydrate
  Overall disinfectant/preservative effectiveness against the test organisms, in words: extremely broad effectiveness
[6]; statement of the text, listed as Quercetin, Dihydrate
  Overall disinfectant/preservative effectiveness against the test organisms, in words: very good to excellent control

## Oc1ccc(C=Cc2cc(O)cc(O)c2)cc1 [Resveratrol]
[6]
  Overall disinfectant/preservative effectiveness against the test organisms, in words: wide range of effectiveness

## polyhexamethyl biguanide [PHMB, reference compound]
[6]
  Overall disinfectant/preservative effectiveness against the test organisms, in words: extremely effective against the tested bacteria
[2]
  Effectiveness against Candida albicans, in words: only moderately effective
[4]
  Cytotoxicity in L929 cell model, in words: significant level of cytotoxicity

Source: patent US20030086986A1, “Ophthalmic, pharmaceutical and other healthcare preparations with naturally occurring plant compounds, extracts and derivatives” (priority 1998, published 2003)
